Assay results taken from patent US20230058160A1, “METABOLITE-BASED POLYMERS, MICROPARTICLES, AND NANOPARTICLES FOR IMMUNOTHERAPY AND METHODS OF TREATING A DISEASE OR DISORDER” (priority 2020, published 2023).
“Also recorded” adds a separate entry of the source.

Legend:
YUMM1.1 cells = assay: MTT cell viability assay, YUMM1.1 melanoma cells; assay type: cell-based, mouse
Procedure: (§1) In order to determine if PFK15 prevents melanoma cell growth in vitro, two different mouse melanoma cells were utilized, namely YUMM1.1 (BrafV600E/wt, Pten−/− Cdkn2−/−MHClHi) and B16F10. Specifically, YUMM1.1 and B16F10 cells were cultured with different concentrations of […], and the percentage cell viability was determined using MTT assay.
(§2) In order to determine if […] prevents melanoma cell growth in vitro, two different mouse melanoma cells were utilized, namely YUMM1.1 and B16F10. Specifically, YUMM1.1 and B16F10 cells were cultured with different concentrations of […], and the percentage cell viability was determined using MTT assay.

[1] = test system: bone marrow derived dendritic cells; assay: Dendritic cell activation by flow cytometry (MHCII, CD86, CD11c); assay type: cell-based, C57BL/6j mice; conditions: for DC activation (CD86+ and MHCII+CD86+ populations in CD11c+ DCs), inhibitor alone: 200 nM PFK15 or 30 nM CB-839; for concentration that prevented the activation of DCs: 24 hours incubation, MHCII, CD86, CD11c staining
Procedure: In order to test the effect of PFKFB3 inhibition on DC and T cell activation, PFK15 was employed. Specifically, DCs were isolated from bone marrow of C57BL/6j mice using GM-CSF, and incubated with different concentrations of PFK15 (50, 100, 200, 400, 800, 1600 nM) for 24 hours. These cells were then stained for MHCII, CD86 and CD 11c to determine activation profile. It was observed that at 200 nM and higher concentrations of PFK15 prevented the activation of DCs (FIG. 3—200 nM shown as example).
In order to test the effect of glutaminase inhibition on DC activation, bone marrow DCs were isolated from C57BL/6j mice and cultured with different concentrations of CB-839, a clinically validated molecule (0, 15, 30, 60, 120 nM) for 24 hours. These cells were then stained for MHCII, CD86, and CD11c to determine activation profile. It was observed that at 30 nM and higher concentrations of CB-839 prevented the activation of DCs (FIG. 11—30 nM is shown as a representative example).
Specifically, DCs were cultured in the presence of CB-839 with or without PEGS (0.1 mg/mL) and with or without LPS (0.1 μg/mL) for 24 hours. Cells were then stained for MHC-II, CD86 and CD11c and analyzed using flow cytometry.

DCs = assay: Seahorse ECAR/OCR of dendritic cells (glycolysis stress test); assay type: cell-based, C57BL/6j mice
Procedure: In order to test if F16BP particles can rescue DCs from exhaustion when cultured in the presence of PFK15, ECAR using Seahorse assays was utilized. Specifically, DCs were cultured with either PFK 15 (200 nM), F16BP (0.1 mg/mL) or PFK15+F16BP with or without LPS and ECAR measurements were obtained.
Specifically, immature DCs were obtained from C57BL/6j mice and cultured with PEGS (0.1 mg/mL) with or without CB-839 (30 nM or 240 nM) for 16 hours. After 16 hours of incubation, DCs were incubated in glucose free medium and ECAR and OCR values were recorded using Seahorse extracellular flux (XF) analyzer (glucose addition at 20 min).

B16F10 cells = assay: MTT cell viability assay, B16F10 melanoma cells; assay type: cell-based, mouse
Procedure: as §1, §2

YUMM1.1 tumors = assay: YUMM1.1 tumor model in mice; assay type: in vivo
Procedure: In order to determine if the injection of F16BP particles in vivo can lead to longer survival in mice, study design shown in FIG. 7A and FIG. 7B was followed.
In order to test the efficacy of F16BP particles-based vaccines to reduce tumor growth in mice, C57BL/6j mice were utilized. Specifically, tumors were induced by injecting 0.75×10^6 cells in the back of the mice. From day 18 onwards, mice were injected with the F16BP based vaccines injected subcutaneously (0.5 mg/mouse) every 3 days (total 3 treatments—days 21, 24, 27) with PFK15 (5 mg/kg) injected every other day intraperitoneally (FIG. 7A—same study design as survival but mice euthanized day 28 for T cell analyses). Controls included PFK15 injections every alternate day, or no treatment. Mice were then sacrificed on day 26 and the tumors, draining lymph nodes, and non-draining contralateral lymph nodes were harvested.

For O=C(Cc1cccc(OC(F)(F)F)c1)Nc1ccc(CCCCc2nnc(NC(=O)Cc3ccccn3)s2)nn1 [CB-839], the IC50 (YUMM1.1 cells; Mus musculus, MTT assay, percentage cell viability, read-out: IC50 to prevent proliferation of YUMM1.1 cells) was 3.75 nM, the “DC activation (CD86+ and MHCII+CD86+ populations in CD11c+ DCs), inhibitor alone” value (shortened to “DC activation … inhibitor alone”) [1] was “significantly reduces activation in DCs” and the “concentration that prevented the activation of DCs” value [1] was ≥ 30 nM. For the same compound, the “glycolysis and mitochondrial respiration in DCs (ECAR and OCR), CB-839 alone” value (DCs; 30 nM CB-839, 16 hours) was “block glycolysis and mitochondrial respiration; also recorded: do not upregulate glycolysis or mitochondrial respiration”.
In the case of O=C(/C=C/c1ccc2ccccc2n1)c1ccncc1 [PFK15], the “killing of YUMM1.1 cells in vitro” value (YUMM1.1 cells) is reported as “able to kill”, the IC50 of YUMM1.1 melanoma cells using PFK-15 (FIG. 6B) (YUMM1.1 cells; MTT assay, n=6) is reported as 5 µM and the “killing of B16F10 cells in vitro” value (B16F10 cells) is reported as “able to kill”. The “DC activation … inhibitor alone” value [1] was “significantly reduces activation in DCs”, the “DC activation … inhibitor alone” value ([1]; listed as PFK-15) was “downregulated” and the “concentration that prevented the activation of DCs” value [1] was ≥ 200 nM. For the same compound, the “ECAR of DCs, PFK15 without LPS” value (DCs; PFK15 200 nM without LPS) was “even lower than the no treatment control”, the “tumor burden / tumor growth” value (YUMM1.1 tumors; F16BP vaccine 0.5 mg/mouse s.c., PFK15 5 mg/kg i.p., vs PFK15 alone and no treatment) was “significant improvements in tumor burden” and the “improvement of survival of mice” value (YUMM1.1 tumors; PFK15 5 mg/kg intraperitoneally every other day) was 15 days.
